Experimental data as given in ChEMBL document CHEMBL3817791, “Discovery of 4-(4-aminopyrazolo[1,5-a][1,3,5]triazin-8-yl)benzamides as novel, highly potent and selective, orally bioavailable inhibitors of Tyrosine Threonine Kinase, TTK” (Bioorg Med Chem Lett, 2016).

Tests used:
[1] = AUC (0 to infinity) in Sprague-Dawley rat at 5 mg/ml, iv; format: ADME, organism-based; parameters: dose 5 mg/ml, route intravenous, time infinity; settings: in vivo
[2] = AUC (0 to last) in CD-1 nude mouse at 25 mg/ml, po; format: ADME, organism-based; parameters: dose 25 mg/ml, time 0 - last, route oral; settings: in vivo
[3] = Antiproliferative activity against human HCT116 cells; format: functional; settings: HCT-116
[4] = target: T1, Aurora kinase A (Homo sapiens, UniProt O14965); assay: Inhibition of full length recombinant human N-terminal His6-tagged Aurora A expressed in Sf21 cells by radiometric assay
T1 sequence (O14965 whole entry): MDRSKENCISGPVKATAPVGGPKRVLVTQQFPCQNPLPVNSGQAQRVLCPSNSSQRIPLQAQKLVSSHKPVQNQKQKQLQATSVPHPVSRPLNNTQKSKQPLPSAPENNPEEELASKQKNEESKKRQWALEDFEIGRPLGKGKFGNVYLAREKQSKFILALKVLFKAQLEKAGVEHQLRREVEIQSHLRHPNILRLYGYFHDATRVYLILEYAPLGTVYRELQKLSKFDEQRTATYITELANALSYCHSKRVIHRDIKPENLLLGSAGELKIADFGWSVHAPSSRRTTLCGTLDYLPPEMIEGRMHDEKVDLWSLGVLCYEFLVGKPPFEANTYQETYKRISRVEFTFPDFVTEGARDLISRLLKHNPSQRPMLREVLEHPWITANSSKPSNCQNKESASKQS

[5] = Half life in Sprague-Dawley rat at 5 mg/ml, iv; format: ADME, organism-based; settings: in vivo
[6] = Half life in mouse microsomes; format: ADME, Microsome
[7] = AUC (0 to last) in CD-1 nude mouse at 100 mg/ml, po; format: ADME, organism-based; parameters: dose 100 mg/ml, route oral, time 0 - last; settings: in vivo
[8] = AUC (0 to last) in CD-1 nude mouse at 10 mg/ml, po; format: ADME, organism-based; parameters: dose 10 mg/ml, route oral, time 0 - last; settings: in vivo
[9] = Antiproliferative activity against human OVCAR3 cells; format: functional; settings: OVCAR-3
[10] = Antiproliferative activity against human PA1 cells; format: functional; settings: PA-1

Cc1cc(-c2cnn3c(NCC4CCOCC4)nc(Oc4ccccc4)nc23)ccc1C(=O)NC1CC1
AUC(0-inf) [1]: 4230 ng·h/mL | AUC(0-t) [2]: 19100 ng·h/mL | GI50 [3]: 13 nM | IC50 [4]: > 50000 nM | half-life [5]: 1.7 h | half-life [6]: 0.767 h | AUC(0-t) [7]: 25000 ng·h/mL | AUC(0-t) [8]: 1530 ng·h/mL | GI50 [9]: 190 nM | GI50 [10]: 30 nM
